Where two headings read alike, the source gives them in different places.
Tests used:
[1] = molecular target: dog NPC1L1 endogenously expressed in MDCKII cells (Canis lupus familiaris, UniProt A0A8I3RZG1); test: [3H]AS binding to MDCKII cells (saturation, kinetics, competition, acid wash); conditions: for IC50: 5.49 nM [3H]AS, 4 h, 37° C., read-out: IC50 inhibition of [3H]AS binding; for Ki: MDCKII cells
Procedure: rNPC1L1/HEK293 and TsA201 cells were seeded at a density of 10,000 cells per well in 96-well poly-D-lysine coated plates and cells were allowed to attach for approximately 18 h at 37° C. TsA201 cells were subsequently transfected with dog NPC1L1/pcDNA5/FRT according to the manufacturer's instructions (Roche) and incubated for 3 days at 37° C. MDCKII-derived, LLC-PKI, HepG2, or CaCo-2 cells were seeded at a density of 25,000 cells per well in 96-well tissue culture treated plates, and cells were allowed to attach and differentiate for approximately 72 h at 37° C., except for CaCo-2 cells where differentiation took approximately 14 days at 37° C. […] Duplicate samples were averaged for each experimental point. […] Dissociation kinetics were determined by addition of 100 μM EZE-gluc, and incubating for different periods of time. Nonspecific binding was defined in the presence of 100 μM EZE-gluc. At the end of the incubation period, cells were washed twice with 200 μl of pre-warmed DMEM to separate bound from free ligand, 1% SDS was added to the wells followed by 5 ml of Scintillant, and radioactivity associated with cells was determined using a β-counter. […] Thereafter, plates were placed on ice and cells were washed twice with ice-cold PBS, followed by ice-cold acid wash with DMEM, pH 3.5, for 1, 5 or 15 minutes. […] For Transwell experiments, MDCKII cells were seeded at 200,000 cells/well in a 24-well plate and incubated for 3 days at 37° C. […] Thereafter, both apical and basolateral compartments were washed three times with PBS, and the Transwell filter was cut out and its associated radioactivity determined using afi-counter. Data from saturation, competition and ligand dissociation experiments were analyzed as described in the literature; see, Priest, et al., 2004 Biochemistry 43:9866-9876; Knaus et al., 1995 Biochemistry 34:13627-13634. The association rate, k1, was determined by employing the pseudo-first-order rate equation k1=kobs([LR]e/[L][LR]max)) where [LR]max is the concentration of the complex at equilibrium, [L] is the concentration of ligand, [LR]max is the total receptor concentration, kobs is the slope of the pseudo-first order plot, ln([LR]e/([LR]e−[LR]t)) versus time, and [LR]t is the receptor-ligand complex at one given time point t.

[2] = molecular target: T1, human NPC1L1 (Homo sapiens, UniProt Q9UHC9); test: [3H]cholesterol flux into hNPC1L1/MDCKII-Flp cells; assay type: cell-based; conditions: for IC50: hNPC1L1/MDCKII-Flp
T1 construct: expressed in transfected cells
T1 sequence (Q9UHC9 22-1359): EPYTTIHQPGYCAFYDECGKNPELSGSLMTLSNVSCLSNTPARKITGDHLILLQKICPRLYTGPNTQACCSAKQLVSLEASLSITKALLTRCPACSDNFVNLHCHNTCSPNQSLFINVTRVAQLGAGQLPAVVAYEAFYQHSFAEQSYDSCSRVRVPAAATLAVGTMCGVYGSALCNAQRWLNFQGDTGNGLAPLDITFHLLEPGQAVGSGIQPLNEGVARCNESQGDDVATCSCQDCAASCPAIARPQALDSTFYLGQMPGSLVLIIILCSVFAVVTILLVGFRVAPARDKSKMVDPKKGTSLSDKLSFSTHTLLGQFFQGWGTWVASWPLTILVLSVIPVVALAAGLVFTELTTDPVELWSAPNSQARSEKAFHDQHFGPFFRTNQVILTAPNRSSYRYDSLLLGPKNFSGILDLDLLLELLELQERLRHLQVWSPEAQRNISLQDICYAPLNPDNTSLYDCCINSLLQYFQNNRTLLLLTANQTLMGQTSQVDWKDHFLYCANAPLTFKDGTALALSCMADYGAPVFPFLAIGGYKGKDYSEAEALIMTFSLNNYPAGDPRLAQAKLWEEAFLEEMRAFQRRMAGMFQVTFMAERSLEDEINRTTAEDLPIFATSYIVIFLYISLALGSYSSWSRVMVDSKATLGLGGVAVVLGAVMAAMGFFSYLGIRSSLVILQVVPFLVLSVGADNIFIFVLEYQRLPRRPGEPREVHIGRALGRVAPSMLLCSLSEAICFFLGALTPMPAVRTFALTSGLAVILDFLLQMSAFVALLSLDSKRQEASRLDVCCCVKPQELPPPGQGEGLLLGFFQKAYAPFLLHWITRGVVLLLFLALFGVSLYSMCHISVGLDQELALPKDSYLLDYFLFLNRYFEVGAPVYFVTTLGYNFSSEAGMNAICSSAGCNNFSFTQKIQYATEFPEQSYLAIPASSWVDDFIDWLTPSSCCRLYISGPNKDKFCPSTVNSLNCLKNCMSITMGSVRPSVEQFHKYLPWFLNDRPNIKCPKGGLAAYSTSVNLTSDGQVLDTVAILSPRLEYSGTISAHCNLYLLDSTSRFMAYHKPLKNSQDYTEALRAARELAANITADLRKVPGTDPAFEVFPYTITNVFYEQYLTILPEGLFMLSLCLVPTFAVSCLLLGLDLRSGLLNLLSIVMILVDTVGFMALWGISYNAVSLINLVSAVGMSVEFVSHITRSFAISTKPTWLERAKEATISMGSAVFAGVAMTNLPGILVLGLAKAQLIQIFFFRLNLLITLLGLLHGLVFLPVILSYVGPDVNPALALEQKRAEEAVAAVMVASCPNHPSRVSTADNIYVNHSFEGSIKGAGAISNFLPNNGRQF
Procedure: Flux assays were performed essentially as described by Yu et al., 2006 J Biol. Chem. 281:6616-6624. Briefly, cell growth medium was completely aspirated and replaced with 200 μl of 5% LPDS containing the appropriate concentration of compound and incubated at 37° C./3 h in a 5% CO2 incubator. Media was subsequently aspirated from cells and cells were incubated in 200 μl of 0-5.5% βmCD dissolved and filtered through a […] filter at 37° C./45 minutes in a 5% CO2 incubator. Media was dumped from cells that were then washed twice with 125 μl of 5% LPDS before media was aspirated and [3H]cholesterol complexed to BSA in 5% LPDS was added; see Yu et al., 2006 J. Biol. Chem. 281:6616-6624. After 45 minute incubation, cells were washed twice with DMEM, thoroughly aspirated and then 1% SDS was added prior to extraction for scintillation counting.
To validate MDCKII cells as an appropriate surrogate system for monitoring NPC1L1-dependent processes, we evaluated their ability to perform EZE-sensitive cholesterol flux using a similar protocol to that recently reported. This assay makes use of the ability of βmCD to deplete membrane-bound cholesterol. Subsequent exposure of cells to [^3H] cholesterol provides a time-dependent flux of this substrate into the cells. […] In an attempt to improve the assay window, a stable MDCKII-Flp cell line over-expressing human NPC1L1, hNPC1L1/MDCKII-Flp, was generated.
To further characterize the [^3H] cholesterol influx process into MDCK cells, the potency of EZE-like compound PS for inhibiting [^3H] cholesterol uptake was determined.

[3] = FIG. 7D, read-out: IC50 block of [3H]cholesterol flux

dog NPC1L1 endogenously expressed in MDCKII cells, sequence (A0A8I3RZG1 entry or part of it): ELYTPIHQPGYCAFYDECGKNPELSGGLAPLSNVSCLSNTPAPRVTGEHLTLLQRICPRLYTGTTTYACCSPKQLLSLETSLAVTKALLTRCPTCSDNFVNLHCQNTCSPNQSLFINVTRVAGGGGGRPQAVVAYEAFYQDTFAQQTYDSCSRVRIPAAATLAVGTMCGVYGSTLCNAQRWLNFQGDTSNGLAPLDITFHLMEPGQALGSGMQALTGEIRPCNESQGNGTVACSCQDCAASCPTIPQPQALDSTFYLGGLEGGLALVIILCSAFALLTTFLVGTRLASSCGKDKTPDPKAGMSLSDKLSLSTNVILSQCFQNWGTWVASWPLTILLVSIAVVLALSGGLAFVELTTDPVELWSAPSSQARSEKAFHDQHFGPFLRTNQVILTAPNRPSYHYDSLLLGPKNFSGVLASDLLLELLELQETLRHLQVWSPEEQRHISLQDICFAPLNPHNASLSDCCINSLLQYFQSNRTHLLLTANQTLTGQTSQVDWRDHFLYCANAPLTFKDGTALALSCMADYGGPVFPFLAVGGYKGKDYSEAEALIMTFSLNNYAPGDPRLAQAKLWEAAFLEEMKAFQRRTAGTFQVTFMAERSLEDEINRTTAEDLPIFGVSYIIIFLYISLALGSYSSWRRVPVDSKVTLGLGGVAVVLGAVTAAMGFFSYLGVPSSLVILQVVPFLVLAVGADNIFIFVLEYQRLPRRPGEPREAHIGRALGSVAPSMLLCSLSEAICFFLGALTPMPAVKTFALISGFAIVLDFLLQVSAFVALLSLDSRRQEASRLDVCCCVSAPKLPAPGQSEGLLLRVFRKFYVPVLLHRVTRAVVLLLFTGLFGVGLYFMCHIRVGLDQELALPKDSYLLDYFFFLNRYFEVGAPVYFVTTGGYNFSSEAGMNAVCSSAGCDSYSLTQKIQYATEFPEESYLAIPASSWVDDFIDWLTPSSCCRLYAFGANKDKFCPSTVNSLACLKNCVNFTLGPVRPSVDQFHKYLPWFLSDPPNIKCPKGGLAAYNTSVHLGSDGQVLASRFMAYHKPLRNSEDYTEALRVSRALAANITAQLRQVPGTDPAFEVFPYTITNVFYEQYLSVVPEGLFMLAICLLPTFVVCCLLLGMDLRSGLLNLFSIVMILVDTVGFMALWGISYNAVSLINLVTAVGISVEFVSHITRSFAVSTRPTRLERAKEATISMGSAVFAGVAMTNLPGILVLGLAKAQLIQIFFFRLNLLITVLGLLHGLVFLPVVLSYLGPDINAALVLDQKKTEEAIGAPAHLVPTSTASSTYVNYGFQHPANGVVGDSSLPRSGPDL

Structure (SMILES) | IC50 [1] [nM] | Ki [1] [nM] | IC50 [2, 3] [nM] | fold weaker than AS and PS as inhibitor of [3H]AS binding ([1]; MDCK cells) [fold] | blockade of [3H]cholesterol influx ([2]; 10 μM PS, 5.5% βmCD treatment) | IC50 ([2]; FIG. 7C, read-out: IC50 inhibition of [3H]cholesterol uptake) [nM]
O=C1[C@H](CC[C@H](O)c2ccc(F)cc2)[C@@H](c2ccc(O)cc2)N1c1ccc(F)cc1 [EZE, Ezetimibe] | 126 | 14 ± 4.11 | > 1000 | – | – | –
O=C(O)[C@H]1O[C@@H](Oc2ccc([C@@H]3[C@@H](CC[C@H](O)c4ccc(F)cc4)C(=O)N3c3ccc(F)cc3)cc2)[C@H](O)[C@@H](O)[C@@H]1O [EZE-gluc, ezetimibe glucuronide] | 24 | 3.51 ± 0.89 | 300 | ~10 | – | –
COC(=O)[C@H]1O[C@@H](Oc2ccc([C@@H]3[C@@H](CC[C@H](O)c4ccc(F)cc4)C(=O)N3c3ccc(C#CCNS(C)(=O)=O)cc3)cc2)[C@H](O)[C@@H](O)[C@@H]1O [PS, 4-[(2S,3R)-3-[(3S)-3-(4-fluorophenyl)-3-hydroxypropyl]-1-(4-{3-[(methylsulfonyl)amino]prop-1-yn-1-yl}phenyl)-4-oxoazetidin-2-yl]phenyl methyl-β-D-glucopyranosiduronate] | 3.02 | 0.33 ± 0.05 | 7 | – | almost completely blocked | 10.3 ± 1.5

— patent US20100184094A1, “USE OF MDCK CELLS IN THE EVALUATION OF CHOLESTEROL MODULATORS” (priority 2007, published 2010)
